From publication PMC7587356, “High-Throughput Screening for Inhibitors of the SARS-CoV-2 Protease Using a FRET-Biosensor” (Molecules, 2020)
Read-outs that look alike come from different tables or passages of the source.

Molecular target: SARS-CoV-2 3CLpro (Severe acute respiratory syndrome coronavirus 2, UniProt P0DTD1)
Assay: biochemical
Type: biochemical
Design: Replicate_1 / Replicate_2 / mean / mean (LOPAC_screen_w_protease): unit not given here
Conditions: for inhibition at 5 µM: 4 h
[1] = sheet LOPAC_screen_w_protease, primary screen with protease, 5 µM, mean of two replicates
[2] = sheet LOPAC_screen_w_protease, primary screen with protease, 5 µM, replicate 1
[3] = sheet LOPAC_screen_w_protease, primary screen with protease, 5 µM, replicate 2
[4] = LOPAC1280 primary screen with protease, 5 µM compound, mean of two replicates
[5] = LOPAC1280 primary screen with protease, 5 µM compound, replicate 1
[6] = LOPAC1280 primary screen with protease, 5 µM compound, replicate 2
[7] = sheet LOPAC_screen_w_protease, LOPAC1280 primary screen with protease, 5 µM compound, mean of the two replicates
[8] = sheet LOPAC_screen_w_protease, LOPAC1280 primary screen with protease, 5 µM compound, replicate 1
[9] = sheet LOPAC_screen_w_protease, LOPAC1280 primary screen with protease, 5 µM compound, replicate 2

Q: `Cc1ccc(/C(=C\CN2CCCC2)c2ccccn2)cc1.Cl` [Triprolidine hydrochloride] was tested. Which mean [1] did it give?
A: 0.01953

Q: What about the Replicate_1 [2] of the same compound?
A: 0.1702

Q: And the Replicate_2 [3]?
A: -0.1311

Q: Which inhibition at 5 µM (read-out: Replicate_1 (LOPAC screen with protease)) does the source give for `O=C(O)Cc1ccc(O)c(O)c1` [3,4-Dihydroxyphenylacetic acid] here?
A: 41.7%

Q: What about the inhibition at 5 µM (read-out: Replicate_2 (LOPAC screen with protease)) of the same compound?
A: 44.4%

Q: And the inhibition at 5 µM (read-out: mean (LOPAC screen with protease))?
A: 43.1%

Q: For `CN(C)c1cc2c(Nc3ccc4c(cnn4Cc4ccccc4)c3)ncnc2cn1` [GW2974], which “mean (LOPAC_screen_w_protease)” value [4] is on record?
A: 1.489

Q: What about the “Replicate_1 (LOPAC_screen_w_protease)” value [5] of the same compound?
A: 2.805

Q: What about the “Replicate_2 (LOPAC_screen_w_protease)” value [6] of the same compound?
A: 0.1722

Q: Which results are given for `CCN(CC)CCOC(=O)c1cc(Cl)c(N)cc1OC.Cl` [SDZ-205,557 hydrochloride]?
A: mean (sheet LOPAC_screen_w_protease, primary screen with protease, compound at 5 µM, mean of two replicates): 2.714; Replicate_1 (sheet LOPAC_screen_w_protease, primary screen with protease, compound at 5 µM, replicate 1): 3.796; Replicate_2 (sheet LOPAC_screen_w_protease, primary screen with protease, compound at 5 µM, replicate 2): 1.633

Q: With `CCCn1c(=O)c2[nH]c(-c3ccc(OCC(=O)NCCN)cc3)nc2n(CCC)c1=O` [Xanthine amine congener] as the compound, how does the mean (sheet LOPAC_screen_w_protease, LOPAC1280 primary screen at 5 µM, with protease, mean of two replicates) read?
A: -1.654

Q: What about the Replicate_1 (sheet LOPAC_screen_w_protease, LOPAC1280 primary screen at 5 µM, with protease, replicate 1) of the same compound?
A: -1.399

Q: What about the Replicate_2 (sheet LOPAC_screen_w_protease, LOPAC1280 primary screen at 5 µM, with protease, replicate 2) of the same compound?
A: -1.91

Q: Which results are given for `Cc1nc(-c2ccc(-c3ccc(C(=O)N4CCc5cc6c(cc54)C4(CCN(C)CC4)CO6)cc3)c(C)c2)no1.Cl` [SB 224289 hydrochloride]?
A: mean (sheet LOPAC_screen_w_protease, LOPAC1280 at 5 µM, mean of two replicates): 1.002; Replicate_1 (sheet LOPAC_screen_w_protease, LOPAC1280 at 5 µM, replicate 1): 2.397; Replicate_2 (sheet LOPAC_screen_w_protease, LOPAC1280 at 5 µM, replicate 2): -0.3926

Q: For `CN1CCc2ccccc2Cc2[nH]c3ccccc3c2CC1` [LE 300], which Replicate_1 is on record?
A: 0.4919

Q: And the Replicate_2?
A: 1.5197

Q: And the mean?
A: 1.0058

Q: What does the source list for `N[C@@H](Cc1ccc(O)c(O)c1)C(=O)O` [L-3,4-Dihydroxyphenylalanine]?
A: mean [7]: 4.21; Replicate_1 [8]: 5.679; Replicate_2 [9]: 2.742

Q: Which results are given for `OCc1ccc(-c2nn(Cc3ccccc3)c3ccccc23)o1` [YC-1]?
A: mean (LOPAC_screen_w_protease) [4]: 1.333; Replicate_1 (LOPAC_screen_w_protease) [5]: 0.3284; Replicate_2 (LOPAC_screen_w_protease) [6]: 2.338

Q: For `C/C(O)=C(\C#N)C(=O)Nc1cc(Br)ccc1Br` [LFM-A13], which “mean (LOPAC_screen_w_protease)” value [4] is on record?
A: 1.507

Q: What about the “Replicate_1 (LOPAC_screen_w_protease)” value [5] of the same compound?
A: -0.001982

Q: What about the “Replicate_2 (LOPAC_screen_w_protease)” value [6] of the same compound?
A: 3.017

Q: For `CSC(N)=NCCC[C@H](N)C(=O)O` [S-Methyl-L-thiocitrulline acetate], which inhibition at 5 µM (sheet LOPAC_screen_w_protease, primary screen with protease, compound at 5 µM, mean of two replicates, read-out: mean) is on record?
A: 2.62%

Q: What about the inhibition at 5 µM (sheet LOPAC_screen_w_protease, primary screen with protease, compound at 5 µM, replicate 1, read-out: Replicate_1) of the same compound?
A: 2.21%

Q: What about the inhibition at 5 µM (sheet LOPAC_screen_w_protease, primary screen with protease, compound at 5 µM, replicate 2, read-out: Replicate_2) of the same compound?
A: 3.04%

Q: Which results are given for `COCc1nc2c([nH]1)c(=O)n(C)c(=O)n2CC(C)C`?
A: mean [7]: 5.36; Replicate_1 [8]: 6.304; Replicate_2 [9]: 4.4152

Q: How did the mean (sheet LOPAC_screen_w_protease, primary screen of LOPAC1280 at 5 µM with protease, mean of the two replicates) turn out when `CC[C@@H]1Cc2cc(O)ccc2C2=C1c1ccc(O)cc1C[C@H]2CC` was run?
A: 3.66

Q: And the Replicate_1 (sheet LOPAC_screen_w_protease, primary screen of LOPAC1280 at 5 µM with protease, replicate 1)?
A: 4.43

Q: What about the Replicate_2 (sheet LOPAC_screen_w_protease, primary screen of LOPAC1280 at 5 µM with protease, replicate 2) of the same compound?
A: 2.89

Q: Which results are given for `NC(CCCP(=O)(O)O)C(=O)O` (racemic) [(±)-2-Amino-5-phosphonopentanoic acid]?
A: mean (LOPAC_screen_w_protease) [4]: 1.558; Replicate_1 (LOPAC_screen_w_protease) [5]: 1.59; Replicate_2 (LOPAC_screen_w_protease) [6]: 1.526

Q: With `CC(C)CC(NC(=O)C1OC1C(=O)O)C(=O)NCCCCNC(=N)N` (stereo not drawn) [E-64] as the compound, how does the mean [1] read?
A: 0.2813

Q: And the Replicate_1 [2]?
A: 1.4489

Q: What about the Replicate_2 [3] of the same compound?
A: -0.8864

Q: What does the source list for `C[N+](C)(C)CC#CCN1CCCC1=O` [Oxotremorine methiodide]?
A: inhibition at 5 µM (sheet LOPAC_screen_w_protease, primary screen at 5 µM, mean of two replicates, read-out: mean (LOPAC screen with protease)): 7.27%; inhibition at 5 µM (sheet LOPAC_screen_w_protease, primary screen at 5 µM, replicate 1, read-out: Replicate_1 (LOPAC screen with protease)): 7.16%; inhibition at 5 µM (sheet LOPAC_screen_w_protease, primary screen at 5 µM, replicate 2, read-out: Replicate_2 (LOPAC screen with protease)): 7.38%

Q: Which results are given for `OC1(c2ccc(Cl)cc2)CCN(Cc2c[nH]c3ccccc23)CC1` [L-741,626]?
A: mean [7]: 4.28; Replicate_1 [8]: 4.691; Replicate_2 [9]: 3.869

Q: With `CC1Cc2cc3c(cc2C(c2ccc(N)cc2)=NN1)OCO3.Cl` (stereo not drawn) [GYKI 52895] as the compound, how does the mean [7] read?
A: 5.365

Q: And the Replicate_1 [8]?
A: 5.021

Q: What about the Replicate_2 [9] of the same compound?
A: 5.7079

Q: `O=C(O)c1cc([N+](=O)[O-])ccc1NCCCc1ccccc1` was tested. Which “Replicate_1 (LOPAC screen with protease)” value did it give?
A: 5.784

Q: And the “Replicate_2 (LOPAC screen with protease)” value?
A: 7.243

Q: What about the “mean (LOPAC screen with protease)” value of the same compound?
A: 6.5136
